The first experiment deals with T1, Nav1.7 (or SCN9A) channel; HEK cells stably transfected with hSCN9A (Homo sapiens, UniProt Q15858).
T1 construct: expressed in transfected cells
T1 sequence (Q15858 whole entry): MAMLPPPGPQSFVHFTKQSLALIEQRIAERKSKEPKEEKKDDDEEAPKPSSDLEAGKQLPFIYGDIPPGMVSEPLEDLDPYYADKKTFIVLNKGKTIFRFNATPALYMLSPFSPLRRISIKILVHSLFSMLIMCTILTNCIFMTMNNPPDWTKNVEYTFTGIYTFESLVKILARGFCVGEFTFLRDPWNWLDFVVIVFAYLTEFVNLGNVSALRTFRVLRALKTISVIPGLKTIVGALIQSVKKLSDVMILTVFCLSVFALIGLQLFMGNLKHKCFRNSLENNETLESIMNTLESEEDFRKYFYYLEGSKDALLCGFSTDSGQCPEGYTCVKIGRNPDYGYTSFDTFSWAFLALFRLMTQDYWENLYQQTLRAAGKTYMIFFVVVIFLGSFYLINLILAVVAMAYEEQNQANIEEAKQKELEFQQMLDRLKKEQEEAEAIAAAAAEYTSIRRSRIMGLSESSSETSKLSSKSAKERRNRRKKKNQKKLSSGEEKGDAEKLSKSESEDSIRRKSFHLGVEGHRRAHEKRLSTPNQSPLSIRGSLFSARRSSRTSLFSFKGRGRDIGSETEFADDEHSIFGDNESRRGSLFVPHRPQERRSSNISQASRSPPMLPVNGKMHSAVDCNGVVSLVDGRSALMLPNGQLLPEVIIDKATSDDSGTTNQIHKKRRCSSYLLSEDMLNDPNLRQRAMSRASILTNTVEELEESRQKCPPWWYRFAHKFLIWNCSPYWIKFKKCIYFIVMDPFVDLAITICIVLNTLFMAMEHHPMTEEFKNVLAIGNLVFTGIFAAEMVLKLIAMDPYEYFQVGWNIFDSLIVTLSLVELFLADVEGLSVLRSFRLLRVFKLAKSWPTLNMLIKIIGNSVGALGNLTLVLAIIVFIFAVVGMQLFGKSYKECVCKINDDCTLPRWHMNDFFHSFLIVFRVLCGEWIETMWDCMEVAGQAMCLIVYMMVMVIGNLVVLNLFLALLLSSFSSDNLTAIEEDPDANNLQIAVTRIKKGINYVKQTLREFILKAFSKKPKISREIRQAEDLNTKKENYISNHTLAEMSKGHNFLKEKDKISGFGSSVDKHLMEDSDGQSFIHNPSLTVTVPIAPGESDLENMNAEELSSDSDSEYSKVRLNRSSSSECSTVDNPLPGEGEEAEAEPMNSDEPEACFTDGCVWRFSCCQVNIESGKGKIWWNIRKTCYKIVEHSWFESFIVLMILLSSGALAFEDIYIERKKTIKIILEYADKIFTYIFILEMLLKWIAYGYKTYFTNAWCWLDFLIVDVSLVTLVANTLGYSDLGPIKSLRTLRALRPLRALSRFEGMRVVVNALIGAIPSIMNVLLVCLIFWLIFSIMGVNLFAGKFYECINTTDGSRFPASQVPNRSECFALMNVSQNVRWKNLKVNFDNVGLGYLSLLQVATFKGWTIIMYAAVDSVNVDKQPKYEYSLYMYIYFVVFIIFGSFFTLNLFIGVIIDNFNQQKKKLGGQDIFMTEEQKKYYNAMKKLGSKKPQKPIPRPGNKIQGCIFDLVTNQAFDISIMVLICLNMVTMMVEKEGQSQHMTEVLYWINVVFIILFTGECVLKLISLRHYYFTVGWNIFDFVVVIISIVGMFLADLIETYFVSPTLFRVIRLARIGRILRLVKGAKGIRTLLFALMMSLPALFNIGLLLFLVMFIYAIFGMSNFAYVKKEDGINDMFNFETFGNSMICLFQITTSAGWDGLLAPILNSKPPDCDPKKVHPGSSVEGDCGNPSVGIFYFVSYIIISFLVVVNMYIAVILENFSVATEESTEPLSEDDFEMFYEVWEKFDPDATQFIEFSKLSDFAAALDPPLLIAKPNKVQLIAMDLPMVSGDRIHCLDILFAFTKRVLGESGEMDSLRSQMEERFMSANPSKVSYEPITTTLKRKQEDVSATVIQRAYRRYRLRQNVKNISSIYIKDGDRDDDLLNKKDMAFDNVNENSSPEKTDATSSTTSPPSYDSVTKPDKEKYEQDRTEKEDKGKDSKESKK
Nature of the experiment: Nav1.7 block, PatchXpress 7000 automated whole-cell voltage clamp, estimated IC50 (EIC50). The class given is cell-based.
Settings: not given
A word on the IC50: it is the point on the concentration scale where inhibition reaches its midpoint. `O=S(=O)(Nc1ncns1)c1cc(F)c(Oc2ccc(C(F)(F)F)cc2C2=CCNCC2)cc1F` [Example 733, 2,5-difluoro-4-[2-(1,2,3,6-tetrahydropyridin-4-yl)-4-(trifluoromethyl)phenoxy]-N-1,2,4-thiadiazol-5-ylbenzenesulfonamide]: the IC50 was 10 nM.

The experiment is the same for the next values; noted with them: PatchXpress platform; hSCN9A HEK cells held at V1/2 of inactivation; estimated IC50.
On to `O=S(=O)(Nc1ncns1)c1cc(F)c(Oc2ccn(Cc3ccc(Cl)cc3)n2)c(F)c1` [Example 265, 4-{[1-(4-chlorobenzyl)-1H-pyrazol-3-yl]oxy}-3,5-difluoro-N-1,2,4-thiadiazol-5-ylbenzenesulfonamide], for which the IC50 was 38900 nM.
Same read-out and setting: in the case of `N#Cc1cc(S(=O)(=O)Nc2nccs2)ccc1Oc1cc(C2CC2)nn1-c1cc(F)ccc1F` [Example 195, 3-Cyano-4-[5-cyclopropyl-2-(2,5-difluoro-phenyl)-2H-pyrazol-3-yloxy]-N-thiazol-2-yl-benzenesulfonamide] it was 1080 nM.
The same measure, in the same setting: under `O=S(=O)(Nc1nccs1)c1ccc(Oc2cc(C(F)(F)F)nn2-c2ccccc2)c(F)c1` [Example 229, 3-fluoro-4-(2-phenyl-5-trifluoromethyl-2H-pyrazol-3-yloxy)-N-thiazol-2-yl-benzenesulfonamide] stands 120 nM.
Same read-out and setting: under `O=S(=O)(Nc1ncns1)c1ccc(Oc2cc(C(F)(F)F)nn2-c2ccccc2)c(F)c1` [Example 254, 3-fluoro-4-(2-phenyl-5-trifluoromethyl-2H-pyrazol-3-yloxy)-N-1,2,4-thiadiazol-5-yl-benzenesulfonamide] stands 340 nM.
With `N#Cc1cc(Oc2ccccc2-c2ccccc2)ccc1S(=O)(=O)Nc1ncns1` [Example 268, 4-(biphenyl-2-yloxy)-2-cyano-N-1,2,4-thiadiazol-5-ylbenzenesulfonamide], the IC50 was 3060 nM.
The same measure, in the same setting: in the case of `Cc1cccc(-c2ccccc2F)c1Oc1ccc(S(=O)(=O)Nc2ncns2)cc1C#N` [Example 43, 3-cyano-4-[(2′-fluoro-3-methylbiphenyl-2-yl)oxy]-N-1,2,4-thiadiazol-5-ylbenzenesulfonamide] it was 21700 nM.

Staying with this experiment, now noted: estimated IC50; hSCN9A HEK cells, PatchXpress platform; Examples 283-814.
Take `N#Cc1cc(S(=O)(=O)Nc2cscn2)ccc1Oc1ccc(Cl)cc1-c1ccnn1C1CCNCC1` [Example 760, 4-[4-chloro-2-(1-piperidin-4-yl-1H-pyrazol-5-yl)phenoxy]-3-cyano-N-1,3-thiazol-4-ylbenzenesulfonamide]: the IC50 was 88 nM.
Still for that read-out and setting: in the case of `N#Cc1cc(S(=O)(=O)Nc2nccs2)ccc1Oc1cccc(-c2ccn[nH]2)c1` [Example 444, 3-cyano-4-[3-(1H-pyrazol-5-yl)phenoxy]-N-1,3-thiazol-2-ylbenzenesulfonamide] it was 9900 nM; in that of `Cc1cn(C(F)F)nc1-c1ccc(Oc2ccc(S(=O)(=O)Nc3nccs3)cc2C#N)cc1` [Example 471, 3-cyano-4-{4-[1-(difluoromethyl)-4-methyl-1H-pyrazol-3-yl]phenoxy}-N-1,3-thiazol-2-ylbenzenesulfonamide], 2700 nM.
The same measure, in the same setting: under `O=S(=O)(Nc1cscn1)c1cc(Cl)c(Oc2ccc(Cl)cc2-c2ccnn2C2CNC2)cc1F` [Example 726, 4-[2-(1-azetidin-3-yl-1H-pyrazol-5-yl)-4-chlorophenoxy]-5-chloro-2-fluoro-N-1,3-thiazol-4-ylbenzenesulfonamide] stands 5.8 nM; under `N#Cc1cc(S(=O)(=O)Nc2nccs2)ccc1Oc1ccc(Cl)c(Cn2cncn2)c1` [Example 336, 4-[4-chloro-3-(1H-1,2,4-triazol-1-ylmethyl)phenoxy]-3-cyano-N-1,3-thiazol-2-ylbenzenesulfonamide], 2200 nM; under `CCn1nc(C(F)(F)F)cc1-c1ccc(Oc2ccc(S(=O)(=O)Nc3ncns3)cc2Cl)cc1` [Example 473, 3-chloro-4-{4-[1-ethyl-3-(trifluoromethyl)-1H-pyrazol-5-yl]phenoxy}-N-1,2,4-thiadiazol-5-ylbenzenesulfonamide], 72 nM.
Take `Cn1nc(C(F)F)cc1-c1ccc(Oc2ccc(S(=O)(=O)Nc3nccs3)cc2C#N)cc1` [Example 383, 3-cyano-4-{4-[3-(difluoromethyl)-1-methyl-1H-pyrazol-5-yl]phenoxy}-N-1,3-thiazol-2-ylbenzenesulfonamide]: the IC50 was 310 nM.
Still for that read-out and setting: in the case of `Cn1nc(C(F)(F)F)cc1-c1ccc(Oc2cc(F)c(S(=O)(=O)Nc3nccs3)cc2F)cc1` [Example 678, 2,5-difluoro-4-{4-[1-methyl-3-(trifluoromethyl)-1H-pyrazol-5-yl]phenoxy}-N-1,3-thiazol-2-ylbenzenesulfonamide] it was 260 nM; in that of `CC1CN(c2ccc(Oc3ccc(S(=O)(=O)Nc4nccs4)cc3C#N)cc2)C(=O)N1` (stereo not drawn) [Example 484, 3-cyano-4-[4-(4-methyl-2-oxoimidazolidin-1-yl)phenoxy]-N-1,3-thiazol-2-ylbenzenesulfonamide], greater than 1000 nM; in that of `Cn1nccc1-c1cc(Br)ccc1Oc1ccc(S(=O)(=O)Nc2ncns2)cc1C(N)=O` [Example 735, 2-[4-bromo-2-(1-methyl-1H-pyrazol-5-yl)phenoxy]-5-[(1,2,4-thiadiazol-5-ylamino)sulfonyl]benzamide], 1000 nM.

The experiment is the same for the next values; noted with them: estimated IC50; hSCN9A HEK cells, PatchXpress platform; Examples 815-1040.
Regarding `O=S(=O)(Nc1ncns1)c1cc(F)c(Oc2ccc(Cl)cc2-c2cnco2)cc1F` [Example 970, 4-[4-chloro-2-(1,3-oxazol-5-yl)phenoxy]-2,5-difluoro-N-1,2,4-thiadiazol-5-ylbenzenesulfonamide], the IC50 was 17 nM.
Same read-out and setting: under `N#Cc1cc(S(=O)(=O)Nc2ncns2)ccc1Oc1ccc(Cl)cc1-c1cc(N2CCNCC2)ncn1` [Example 875, 4-[4-chloro-2-(6-piperazin-1-ylpyrimidin-4-yl)phenoxy]-3-cyano-N-1,2,4-thiadiazol-5-ylbenzenesulfonamide] stands 50 nM; under `Nc1cc(-c2cc(Cl)ccc2Oc2cc(F)c(S(=O)(=O)Nc3cnccn3)cc2Cl)ccn1` [Example 918, 4-[2-(2-aminopyridin-4-yl)-4-chlorophenoxy]-5-chloro-2-fluoro-N-pyrazin-2-ylbenzenesulfonamide], 140 nM.
On the same count and under the same terms, in the case of `CN(C)c1n[nH]cc1-c1cc(Cl)ccc1Oc1cc(F)c(S(=O)(=O)Nc2nncs2)cc1Cl` [Example 870, 5-chloro-4-{4-chloro-2-[3-(dimethylamino)-1H-pyrazol-4-yl]phenoxy}-2-fluoro-N-1,3,4-thiadiazol-2-ylbenzenesulfonamide] it was 140 nM; in that of `N#Cc1cc(S(=O)(=O)Nc2ncns2)ccc1Oc1cc(F)c(OC(F)(F)F)cc1-c1ccnnc1` [Example 958, 3-cyano-4-[5-fluoro-2-pyridazin-4-yl-4-(trifluoromethoxy)phenoxy]-N-1,2,4-thiadiazol-5-ylbenzenesulfonamide], 5.9 nM; in that of `O=S(=O)(Nc1ncns1)c1ccc(Oc2ccc(C(F)(F)F)cc2-c2ccnnc2)c(F)c1` [Example 929, 3-fluoro-4-[2-pyridazin-4-yl-4-(trifluoromethyl)phenoxy]-N-1,2,4-thiadiazol-5-ylbenzenesulfonamide], 100 nM.
On the same count and under the same terms, under `Cc1nnc(NS(=O)(=O)c2cc(Cl)c(Oc3ccc(Cl)cc3-c3ccnn3C)cc2F)s1` [Example 817, 5-chloro-4-[4-chloro-2-(1-methyl-1H-pyrazol-5-yl)phenoxy]-2-fluoro-N-(5-methyl-1,3,4-thiadiazol-2-yl)benzenesulfonamide] stands 300 nM.

(Values after patent US8541588B2, “Sulfonamide derivatives” (Pfizer Limited, priority 2009, dated 2013).)
